Reference: US20030040531A1, “Remedies for reperfusion injury containing integrin alphanubeta 3 antagonist” (priority 2000, published 2003)

What was measured:
platelet aggregation [1] = experiment: inhibition of platelet aggregation, rat; type: cell-based; settings: read-out: concentration (IC50) necessary for inhibition of platelet aggregation
[2] = tested on: dog vascular smooth muscle cells; experiment: adhesion of dog vascular smooth muscle cells to bovine vitronectin; type: cell-based; settings: Canis lupus familiaris, read-out: concentration (IC50) necessary for inhibition of adhesion to vitronectin
Method: (§1) The adhesion of vascular smooth muscle cells to immobilized human vitronectin was measured in accordance with the method of Liaw et al. (L. Liaw et al., Circ. Res., 74, 214 (1994)). A Dulbecco's phosphate buffer (Dulbecco's PBS(−)) solution of human serum-derived vitronectin adjusted to a concentration of 4 μg/ml was first added to wells (50 μl/well) of a microplate (Maxisorp), and a reaction for immobilization was allowed to proceed at 4° C. overnight. After washing twice with 150 μl of Dulbecco's PBS (−), Dulbecco's PBS (−) containing 10 mg/ml of bovine serum albumin was added, followed by blocking at 37° C. for one hr. The microplate was then washed twice with 150 μl of Dulbecco's PBS (−) to prepare an assay plate.
(§2) Next, 50 μl of a Dulbecco's modified Eagle's basal medium containing 20 mg/ml of bovine serum albumin with a medicament added thereto was added to the wells of the human vitronectin-coated assay microplate, followed by pre-cultivation under 5% carbon dioxide at 37° C. for 10 min. Thereafter, 50 μl of the Dulbecco's modified Eagle's basal medium with human vascular smooth muscle cells suspended therein was added thereto, and the plate was thoroughly stirred. A reaction was allowed to proceed under 5% carbon dioxide at 37° C. for 90 min. The reaction solution containing non-adherent cells was then removed, followed by washing three times with Dulbecco's PBS (−). For the adhered cells, 100 μl of Dulbecco's PBS (−) containing 4% paraformaldehyde was added, and immobilization was allowed to proceed at room temperature for 10 min. Next, 100 μl of a Dulbecco's PBS (−) containing 0.5% Toluidine Blue and 4% paraformaldehyde was added, and staining was allowed to proceed at room temperature for 5 min, followed by thorough washing with distilled water. The inside of the wells was then air-dried, and 1% aqueous sodium dodecylsulfate solution was then added to perform cytolysis. The absorbance of the microplate thus obtained was measured at 595 nm. […] The inhibition was calculated by the following equation. IC50 was determined from a primary regression line of the logarithm of each concentration of the test compound and the logarithm of (100−inhibition)/inhibition. [formula]
(§3) Rat vascular smooth muscle cells were cultivated in a medium composed of a mixture of equal amounts of 15% fetal calf serum-containing 199 medium and RPMI 1640 medium. Separately, hamster and dog vascular smooth muscle cells were cultivated in a 10% fetal calf serum-containing Dulbecco's modified Eagle's basal medium. These cultivated cells were then suspended in a Dulbecco's modified Eagle's basal medium to concentrations of 3×10^5 cells/ml (rat), 3×10^5 cells/ml (hamster), and 4×10^5 cells /ml (dog), respectively. Rat vitronectin was used in the adhesion system of rats and hamsters, while bovine vitronectin was used in the adhesion system of dogs.

[3] = tested on: rat acute myocardial ischemia-reperfusion model; experiment: rat acute myocardial ischemia-reperfusion model; type: in vivo; settings: for myocardial infarct size (proportion of the infarct area in the left ventricle): average value±SE; for influence on the blood pressure and the heart rate: doses at which the infarct inhibition action could be obtained
Method: Male Wistar rats (330 to 420 g) were subjected to controlled respiration using an artificial respirator under pentobarbital anesthesia (60 mg/kg, i.p.), and the blood pressure and the heart rate were measured through a blood pressure amplifier and a heart rate unit. Further, for the ischemia of the myocardium, an increase in voltage of R-wave in the II leading in an electrocardiogram was confirmed with a monitor through a bioelectricity amplifier. The rats underwent thoracotomy, and the coronary artery, together with the myocardium, was then occluded using a suture with a needle. Ischemia for 3 min and reperfusion for 5 min were followed by ischemia for 45 min and reperfusion for 45 min. Medicaments tested and concentrations thereof were 3 mg/kg+3 mg/kg/hr (bolus +infusion) (L; low dose group) and 6 mg/kg+3 mg/kg/hr (bolus +infusion) (H; high dose group) for the compound represented by formula (V); 3 mg/kg+3 mg/kg/hr (bolus +infusion) for the compound represented by formula (VI); 3 mg/kg+3 mg/kg/hr (bolus +infusion) (L; low dose group) and 6 mg/kg+3 mg/kg/hr (bolus +infusion) (H; high dose group) for the compound represented by formula (IV); 5 mg/kg+5 mg/kg/hr(bolus +infusion)(L; low dose group) and 10 mg/kg+10 mg/kg/hr (bolus +infusion) (H; high dose group) for the compound represented by formula (VII); and 1 mg/kg+1 mg/kg/hr (bolus+infusion) (L; low dose group) and 6 mg/kg+6 mg/kg/hr (bolus+infusion) (H; high dose group) for the compound represented by formula (VIII). For a control group (group C), a 10% (v/v) dimethyl sulfoxide/5% glucose solution was administered, and each medicament was dissolved in the same solvent. The dose volume was 3 ml/kg+3 ml/kg/h (bolus+infusion). The medicament was continuously administered through an infusion pump for the period starting with one min before the ischemia and ending with the completion of the experiment. After reperfusion for 45 min, the rats were slaughtered by excessive administration of pentobarbital, and the heart was removed. After perfusion with a Ringer solution, perfusion staining was carried out with 1.5% triphenyltetrazolium chloride, and the proportion of the infarct area in the left ventricle was quantitatively determined. For animals used in the experiment, each group consisted of 5 rats.

platelet aggregation [4] = experiment: inhibition of platelet aggregation, human; type: cell-based; settings: read-out: concentration (IC50) necessary for inhibition of platelet aggregation
integrin αvβ3 = integrin αvβ3 (Homo sapiens, UniProt P05106+P06756); experiment: integrin αvβ3 binding assay (Pharmacological Example 1 in WO 99/38849)
From the text: Whether or not a compound has integrin αvβ3 antagonistic activity may be determined by assaying the antagonistic action by integrin αvβ3 binding assay as described, for example, in Pharmacological Test Example 1 in WO 99/38849.

[5] = tested on: human vascular smooth muscle cells; experiment: adhesion of human vascular smooth muscle cells to immobilized human vitronectin; type: cell-based; settings: read-out: concentration (IC50) necessary for inhibition of adhesion to vitronectin
Method: as §1
Separately, human vascular smooth muscle cells cultivated at 37° C. under 5% carbon dioxide in a medium for vascular smooth muscle cells were separated using a Dulbecco's PBS (−) containing trypsin-EDTA, were washed with Dulbecco's PBS (−), and were then suspended in a Dulbecco's modified Eagle's basal medium to a concentration of 2×10^5/ml.
as §2

platelet aggregation [6] = experiment: inhibition of platelet aggregation, dog; type: cell-based; settings: Canis lupus familiaris, read-out: concentration (IC50) necessary for inhibition of platelet aggregation
[7] = tested on: rat vascular smooth muscle cells; experiment: adhesion of rat vascular smooth muscle cells to rat vitronectin; type: cell-based; settings: read-out: concentration (IC50) necessary for inhibition of adhesion to vitronectin
Method: as §1, §2, §3

[8] = 3 mg/kg+3 mg/kg/hr (bolus+infusion)
[9] = 3 mg/kg+3 mg/kg/hr (bolus+infusion), n=5

integrin αvβ3, sequence (P06756 31-1048): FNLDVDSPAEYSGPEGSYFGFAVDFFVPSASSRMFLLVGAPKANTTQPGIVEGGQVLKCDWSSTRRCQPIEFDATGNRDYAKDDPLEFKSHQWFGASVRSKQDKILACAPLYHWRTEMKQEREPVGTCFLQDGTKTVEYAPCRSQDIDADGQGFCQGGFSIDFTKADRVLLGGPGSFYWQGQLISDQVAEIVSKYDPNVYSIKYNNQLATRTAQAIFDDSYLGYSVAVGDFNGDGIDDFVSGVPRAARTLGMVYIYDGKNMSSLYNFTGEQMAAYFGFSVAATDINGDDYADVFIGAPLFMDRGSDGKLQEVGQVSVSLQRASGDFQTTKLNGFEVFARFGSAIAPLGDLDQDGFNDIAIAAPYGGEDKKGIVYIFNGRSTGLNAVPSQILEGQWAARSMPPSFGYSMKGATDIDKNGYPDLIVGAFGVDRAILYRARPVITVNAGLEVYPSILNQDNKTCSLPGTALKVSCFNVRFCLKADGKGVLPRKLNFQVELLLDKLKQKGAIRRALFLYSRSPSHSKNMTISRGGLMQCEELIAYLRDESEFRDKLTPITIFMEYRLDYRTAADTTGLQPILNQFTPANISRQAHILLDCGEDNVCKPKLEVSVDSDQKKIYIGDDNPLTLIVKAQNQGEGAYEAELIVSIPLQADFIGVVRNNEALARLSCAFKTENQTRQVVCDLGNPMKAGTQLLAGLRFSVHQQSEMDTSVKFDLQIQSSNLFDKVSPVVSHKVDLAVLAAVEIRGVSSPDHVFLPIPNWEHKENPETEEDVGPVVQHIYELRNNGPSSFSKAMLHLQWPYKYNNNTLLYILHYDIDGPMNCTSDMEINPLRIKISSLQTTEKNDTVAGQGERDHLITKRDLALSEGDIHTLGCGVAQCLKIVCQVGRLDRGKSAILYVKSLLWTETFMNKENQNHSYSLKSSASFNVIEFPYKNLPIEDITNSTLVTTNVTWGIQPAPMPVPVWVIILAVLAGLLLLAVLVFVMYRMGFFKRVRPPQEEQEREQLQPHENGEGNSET
integrin αvβ3, sequence (P05106 27-788): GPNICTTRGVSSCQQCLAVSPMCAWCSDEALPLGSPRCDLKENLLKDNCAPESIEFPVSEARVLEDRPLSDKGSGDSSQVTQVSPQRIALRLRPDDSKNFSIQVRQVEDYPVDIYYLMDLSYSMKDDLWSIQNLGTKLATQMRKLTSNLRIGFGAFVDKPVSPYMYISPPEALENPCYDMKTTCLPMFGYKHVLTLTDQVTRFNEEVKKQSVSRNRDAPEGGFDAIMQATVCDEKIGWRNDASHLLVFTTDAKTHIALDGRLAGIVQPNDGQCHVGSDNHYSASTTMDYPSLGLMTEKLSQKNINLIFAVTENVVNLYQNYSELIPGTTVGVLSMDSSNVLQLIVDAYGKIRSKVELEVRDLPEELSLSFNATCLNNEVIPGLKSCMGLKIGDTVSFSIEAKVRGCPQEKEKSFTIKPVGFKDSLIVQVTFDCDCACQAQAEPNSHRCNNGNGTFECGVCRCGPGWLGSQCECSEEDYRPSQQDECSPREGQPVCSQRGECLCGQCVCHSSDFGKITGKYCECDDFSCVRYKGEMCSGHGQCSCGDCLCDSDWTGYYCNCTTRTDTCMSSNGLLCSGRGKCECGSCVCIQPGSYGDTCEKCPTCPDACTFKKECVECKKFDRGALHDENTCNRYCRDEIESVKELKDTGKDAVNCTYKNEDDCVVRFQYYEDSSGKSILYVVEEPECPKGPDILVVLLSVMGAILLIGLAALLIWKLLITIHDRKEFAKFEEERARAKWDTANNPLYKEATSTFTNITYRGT

Compound | IC50 (platelet aggregation [1]) [nM] | IC50 [2] [nM] | reduction of myocardial infarct size as compared with group C ([3]; 5 mg/kg+5 mg/kg/hr (bolus+infusion), group L) [%] | myocardial infarct size (proportion of the infarct area in the left ventricle) ([3]; 5 mg/kg+5 mg/kg/hr (bolus+infusion), group L, n=5, group C 38.8±[…]) [%] | reduction of myocardial infarct size as compared with group C ([3]; 10 mg/kg+10 mg/kg/hr (bolus+infusion), group H) [%] | myocardial infarct size (proportion of the infarct area in the left ventricle) ([3]; 10 mg/kg+10 mg/kg/hr (bolus+infusion), group H, n=5, group C 38.8±[…]) [%] | influence on the blood pressure and the heart rate [3] | IC50 (platelet aggregation [4]) [nM] | IC50 (integrin αvβ3) [nM] | IC50 [5] [nM] | IC50 (platelet aggregation [6]) [nM] | IC50 [7] [nM] | reduction of myocardial infarct size as compared with group C [3, 8] [%] | myocardial infarct size (proportion of the infarct area in the left ventricle) [3, 9] [%] | reduction of myocardial infarct size as compared with group C ([3]; 1 mg/kg+1 mg/kg/hr (bolus+infusion), group L) [%] | myocardial infarct size (proportion of the infarct area in the left ventricle) ([3]; 1 mg/kg+1 mg/kg/hr (bolus+infusion), group L, n=5, group C 36.0±1.9%) [%] | reduction of myocardial infarct size as compared with group C ([3]; 6 mg/kg+6 mg/kg/hr (bolus+infusion), group H) [%] | myocardial infarct size (proportion of the infarct area in the left ventricle) ([3]; 6 mg/kg+6 mg/kg/hr (bolus+infusion), group H, n=5, group C 36.0±1.9%) [%] | reduction of myocardial infarct size as compared with group C ([3]; 6 mg/kg+3 mg/kg/hr (bolus+infusion), group H) [%] | myocardial infarct size (proportion of the infarct area in the left ventricle) ([3]; 6 mg/kg+3 mg/kg/hr (bolus+infusion), group H, n=5) [%]
O=C(NC[C@H](NS(=O)(=O)c1ccc(O)cc1)C(=O)O)c1ccc(N2CCC(NC3=NCCCN3)CC2)c(F)c1 [formula (VII), 3-[3-Fluoro-4-{4-(1,4,5,6-tetrahydropyrimidin-2-ylamino)piperidin-1-yl}benzoylamino]-(2S)-{(4-hydroxybenzenesulfonyl)amino}propionic Acid] | > 100000 | 18 | 24.5 | 29.3±1.7 | 41.5 | 22.7±3.8 | no influence | 230 | 0.066 | 69 | 190 | 640 |  |  |  |  |  |  |  | 
O=C(NC[C@@H](NS(=O)(=O)c1cccs1)C(=O)O)c1ccc(N2CCCC(NC3=NCCCN3)C2)cc1 (stereo partly drawn) [formula (XI), 3-[4-{(3S)-(1,4,5,6-Tetrahydropyrimidin-2-ylamino)piperidin-1-yl}benzoylamino]-(2S)-{(thiophene-2-sulfonyl)amino}propionic Acid] |  |  |  |  |  |  |  | 95 | 0.14 | 24 |  |  |  |  |  |  |  |  |  | 
O=C(NC[C@@H](NS(=O)(=O)c1ccccc1)C(=O)O)c1ccc(N2CCCC(NC3=NCCCN3)C2)cc1 (stereo partly drawn) [formula (IX), (2S)-Benzenesulfonylamino-3-[4-{(3S)-(1,4,5,6-tetrahydropyrimidin-2-ylamino)piperidin-1-yl}benzoylamino]propionic Acid] |  | 11 |  |  |  |  |  | 56 | 0.53 | 28 | 59 | 96 |  |  |  |  |  |  |  | 
O=C(NCC(NS(=O)(=O)c1ccccc1)C(=O)O)c1ccc(OCCNC2=NCCCN2)cc1 (stereo in doubt) [formula (VI), 4-[2-(3,4,5,6-Tetrahydropyrimidin-2-ylamino)ethyloxy]benzoyl-2(S)-phenylsulfonylamino-β-alanine] | > 100000 |  |  |  |  |  | no influence | 180 | 0.39 | 72 |  | 450 | 34.8 | 30.3±6.1 |  |  |  |  |  | 
COc1cc(C(=O)NCC(NS(=O)(=O)c2ccccc2)C(=O)O)ccc1N1CCC(NC2=NCCCN2)CC1 (stereo in doubt) [formula (VIII), (2S)-Benzenesulfonylamino-3-[3-methoxy-4-{4-(1,4,5,6-tetrahydropyrimidin-2-ylamino)-piperidin-1-yl}benzoylamino]propionic Acid] |  | 28 |  |  |  |  | no influence | 130 | 0.14 | 130 | 56 | 760 |  |  | 24.2 | 27.3±5.2 | 32.5 | 24.3±3.8 |  | 
O=C(NCC(NS(=O)(=O)c1ccccc1)C(=O)O)c1ccc(N2CCC(NC3=NCCCN3)CC2)cc1 (stereo in doubt) [formula (V), (2S)-Benzenesulfonylamino-3-[4-{4-(1,4,5,6-tetrahydropyrimidin-2-ylamino)piperidin-1-yl}-benzoylamino]propionic Acid] | 13000 |  |  |  |  |  | no influence | 63 | 1.2 | 190 |  | 800 | 16.1 | 39.0±1.7 |  |  |  |  | 35.5 | 30.0±1.6
O=C(NC[C@@H](NS(=O)(=O)c1ccccc1)C(=O)O)c1ccc(N2CCCC(NC3=NCCCN3)C2)cc1F (stereo partly drawn) [formula (X), (2S)-Benzenesulfonylamino-3-[2-fluoro-4-{(3S)-(1,4,5,6-tetrahydropyrimidin-2-ylamino)-piperidin-1-yl}benzoylamino]propionic Acid] |  | 9.7 |  |  |  |  |  | 410 | 0.16 | 13 | 110 | 96 |  |  |  |  |  |  |  | 
